Laboratory results: the NIST ThermoML archive (doi:10.1016/j.tca.2004.12.015)
Several values for one entry are separate records, joined by “and”; a condition that tells them apart may be missing. Equal entries are not always repeated.

Experiment: molar heat capacity at constant pressure
Conditions: 101.33 kPa, Vacuum adiabatic calorimetry

N#CCCNc1ccccc1 [3-anilinopropanenitrile]
Conditions | molar heat capacity at constant pressure
83 K, Crystal 2 | 52.6 J/K/mol
83.11 K, Crystal 2 | 52.8 J/K/mol
85.94 K, Crystal 2 | 53.3 J/K/mol
88 K, Crystal 2 | 53.8 J/K/mol
88.94 K, Crystal 2 | 54.1 J/K/mol
91.87 K, Crystal 2 | 55.3 J/K/mol
93 K, Crystal 2 | 55 J/K/mol
94.73 K, Crystal 2 | 54.7 J/K/mol
97.54 K, Crystal 2 | 55.3 J/K/mol
98 K, Crystal 2 | 56 J/K/mol
100.3 K, Crystal 2 | 55.4 J/K/mol
103 K, Crystal 2 | 57 J/K/mol
103.01 K, Crystal 2 | 56 J/K/mol
105.67 K, Crystal 2 | 57.9 J/K/mol
108 K, Crystal 2 | 57.6 J/K/mol
108.29 K, Crystal 2 | 58.1 J/K/mol
110.86 K, Crystal 2 | 58.6 J/K/mol
113 K, Crystal 2 | 58.4 J/K/mol
113.39 K, Crystal 2 | 59.7 J/K/mol
115.91 K, Crystal 2 | 59.1 J/K/mol
118 K, Crystal 2 | 59.1 J/K/mol
118.39 K, Crystal 2 | 59.9 J/K/mol
120.86 K, Crystal 2 | 59.7 J/K/mol
123 K, Crystal 2 | 60.1 J/K/mol
123.29 K, Crystal 2 | 60.2 J/K/mol
125.69 K, Crystal 2 | 61.3 J/K/mol
128 K, Crystal 2 | 61.3 J/K/mol
128.08 K, Crystal 2 | 61.2 J/K/mol
130.44 K, Crystal 2 | 61.4 J/K/mol
132.78 K, Crystal 2 | 62 J/K/mol
133 K, Crystal 2 | 62.6 J/K/mol
135.1 K, Crystal 2 | 62.8 J/K/mol
137.39 K, Crystal 2 | 63.4 J/K/mol
138 K, Crystal 2 | 64.3 J/K/mol
139.66 K, Crystal 2 | 64.3 J/K/mol
141.91 K, Crystal 2 | 65 J/K/mol
143 K, Crystal 2 | 66 J/K/mol
144.13 K, Crystal 2 | 67.1 J/K/mol
146.35 K, Crystal 2 | 66.9 J/K/mol
148 K, Crystal 2 | 67.8 J/K/mol
148.54 K, Crystal 2 | 67.5 J/K/mol
150.73 K, Crystal 2 | 68.2 J/K/mol
152.89 K, Crystal 2 | 68.6 J/K/mol
153 K, Crystal 2 | 69.6 J/K/mol
155.03 K, Crystal 2 | 69.6 J/K/mol
157.16 K, Crystal 2 | 70.4 J/K/mol
158 K, Crystal 2 | 71.3 J/K/mol
159.28 K, Crystal 2 | 71.7 J/K/mol
161.38 K, Crystal 2 | 72.6 J/K/mol
163 K, Crystal 2 | 73.1 J/K/mol
163.47 K, Crystal 2 | 73 J/K/mol
165.54 K, Crystal 2 | 73.7 J/K/mol
167.59 K, Crystal 2 | 74.3 J/K/mol
168 K, Crystal 2 | 74.7 J/K/mol
169.63 K, Crystal 2 | 75.2 J/K/mol
171.66 K, Crystal 2 | 76 J/K/mol
173 K, Crystal 2 | 76.2 J/K/mol
173.68 K, Crystal 2 | 77 J/K/mol
175.7 K, Crystal 2 | 77.8 J/K/mol
177.67 K, Crystal 2 | 78.2 J/K/mol
178 K, Crystal 2 | 77.8 J/K/mol
179.65 K, Crystal 2 | 78.9 J/K/mol
181.61 K, Crystal 2 | 79.9 J/K/mol
183 K, Crystal 2 | 79.5 J/K/mol
183.57 K, Crystal 2 | 81.2 J/K/mol
185.51 K, Crystal 2 | 81.6 J/K/mol
187.45 K, Crystal 2 | 82.1 J/K/mol
188 K, Crystal 2 | 81.5 J/K/mol
189.37 K, Crystal 2 | 83 J/K/mol
191.29 K, Crystal 2 | 84 J/K/mol
193 K, Crystal 2 | 84 J/K/mol
193.19 K, Crystal 2 | 84 J/K/mol
195.09 K, Crystal 2 | 84.8 J/K/mol
196.97 K, Crystal 2 | 84.8 J/K/mol
198 K, Crystal 2 | 86.5 J/K/mol
198.84 K, Crystal 2 | 86.5 J/K/mol
200.68 K, Crystal 2 | 88.1 J/K/mol
202.52 K, Crystal 2 | 88.1 J/K/mol
203 K, Crystal 2 | 89.8 J/K/mol
204.36 K, Crystal 2 | 90.6 J/K/mol
206.19 K, Crystal 2 | 92.3 J/K/mol
208 K, Crystal 2 | 94 J/K/mol
208.02 K, Crystal 2 | 93.1 J/K/mol
209.84 K, Crystal 2 | 94.8 J/K/mol
211.66 K, Crystal 2 | 96.4 J/K/mol
213 K, Crystal 2 | 98.9 J/K/mol
213.46 K, Crystal 2 | 97.3 J/K/mol
215.26 K, Crystal 2 | 98.9 J/K/mol
217.05 K, Crystal 2 | 101 J/K/mol
218 K, Crystal 2 | 105 J/K/mol
218.84 K, Crystal 2 | 102 J/K/mol
220.61 K, Crystal 2 | 105 J/K/mol
222.38 K, Crystal 2 | 107 J/K/mol
223 K, Crystal 2 | 111 J/K/mol
224.14 K, Crystal 2 | 111 J/K/mol
225.88 K, Crystal 2 | 112 J/K/mol
227.6 K, Crystal 2 | 116 J/K/mol
228 K, Crystal 2 | 118 J/K/mol
229.29 K, Crystal 2 | 121 J/K/mol
230.95 K, Crystal 2 | 124 J/K/mol
232.59 K, Crystal 2 | 126 J/K/mol
233 K, Crystal 2 | 125 J/K/mol
234.22 K, Crystal 2 | 129 J/K/mol
235.85 K, Crystal 2 | 131 J/K/mol
237.47 K, Crystal 2 | 132 J/K/mol
238 K, Crystal 2 | 132 J/K/mol
239.08 K, Crystal 2 | 136 J/K/mol
240.67 K, Crystal 2 | 140 J/K/mol
242.24 K, Crystal 2 | 141 J/K/mol
243 K, Crystal 2 | 139 J/K/mol
243.78 K, Crystal 2 | 144 J/K/mol
245.31 K, Crystal 2 | 146 J/K/mol
246.85 K, Crystal 2 | 146 J/K/mol
248 K, Crystal 2 | 146 J/K/mol
248.39 K, Crystal 2 | 147 J/K/mol
249.91 K, Crystal 2 | 148 J/K/mol
251.45 K, Crystal 2 | 149 J/K/mol
252.99 K, Crystal 2 | 150 J/K/mol
253 K, Crystal 2 | 151 J/K/mol
254.53 K, Crystal 2 | 150 J/K/mol
256.06 K, Crystal 2 | 150 J/K/mol
257.59 K, Crystal 2 | 151 J/K/mol
258 K, Crystal 2 | 156 J/K/mol
259.11 K, Crystal 2 | 153 J/K/mol
260.62 K, Crystal 2 | 155 J/K/mol
262.12 K, Crystal 2 | 156 J/K/mol
263 K, Crystal 2 | 160 J/K/mol
263.62 K, Crystal 2 | 158 J/K/mol
265.1 K, Crystal 2 | 158 J/K/mol
266.58 K, Crystal 2 | 160 J/K/mol
268 K, Crystal 2 | 161 J/K/mol
268.05 K, Crystal 2 | 160 J/K/mol
269.52 K, Crystal 2 | 161 J/K/mol
270.98 K, Crystal 2 | 161 J/K/mol
272.44 K, Crystal 2 | 161 J/K/mol
273 K, Crystal 2 | 162 J/K/mol
273.9 K, Crystal 2 | 162 J/K/mol
275.36 K, Crystal 2 | 163 J/K/mol
276.81 K, Crystal 2 | 163 J/K/mol
278 K, Crystal 2 | 162 J/K/mol
278.26 K, Crystal 2 | 164 J/K/mol
279.7 K, Crystal 2 | 164 J/K/mol
281.13 K, Crystal 2 | 165 J/K/mol
282.56 K, Crystal 2 | 165 J/K/mol
283 K, Crystal 2 | 162 J/K/mol
283.98 K, Crystal 2 | 165 J/K/mol
285.41 K, Crystal 2 | 165 J/K/mol
286.82 K, Crystal 2 | 165 J/K/mol
288 K, Crystal 2 | 164 J/K/mol
288.23 K, Crystal 2 | 165 J/K/mol
289.63 K, Crystal 2 | 166 J/K/mol
291.02 K, Crystal 2 | 166 J/K/mol
292.39 K, Crystal 2 | 167 J/K/mol
293 K, Crystal 2 | 168 J/K/mol
293.74 K, Crystal 2 | 169 J/K/mol
295.08 K, Crystal 2 | 170 J/K/mol
296.42 K, Crystal 2 | 171 J/K/mol
297.76 K, Crystal 2 | 174 J/K/mol
298.15 K, Crystal 2 | 179 J/K/mol
299.09 K, Crystal 2 | 177 J/K/mol
300.41 K, Crystal 2 | 180 J/K/mol
301.72 K, Crystal 2 | 185 J/K/mol
303 K, Crystal 2 | 192 J/K/mol and 196 J/K/mol
304.27 K, Crystal 2 | 201 J/K/mol
305 K, Crystal 2 | 206 J/K/mol
305.5 K, Crystal 2 | 213 J/K/mol
306.69 K, Crystal 2 | 231 J/K/mol
307.82 K, Crystal 2 | 260 J/K/mol
308.85 K, Crystal 2 | 301 J/K/mol
309.78 K, Crystal 2 | 355 J/K/mol
310.63 K, Crystal 2 | 390 J/K/mol
311.5 K, Crystal 1 | 329 J/K/mol
312.51 K, Crystal 1 | 280 J/K/mol
313.55 K, Crystal 1 | 303 J/K/mol
314.54 K, Crystal 1 | 330 J/K/mol
315.48 K, Crystal 1 | 365 J/K/mol
316.35 K, Crystal 1 | 410 J/K/mol
317.16 K, Crystal 1 | 466 J/K/mol
317.89 K, Crystal 1 | 538 J/K/mol
318.55 K, Crystal 1 | 629 J/K/mol
319.14 K, Crystal 1 | 738 J/K/mol
319.66 K, Crystal 1 | 865 J/K/mol
320.12 K, Crystal 1 | 1014 J/K/mol
320.52 K, Crystal 1 | 1189 J/K/mol
320.86 K, Crystal 1 | 1380 J/K/mol
321.16 K, Crystal 1 | 1596 J/K/mol
321.42 K, Crystal 1 | 1846 J/K/mol
321.65 K, Crystal 1 | 2037 J/K/mol
321.85 K, Crystal 1 | 2361 J/K/mol
322.03 K, Crystal 1 | 2644 J/K/mol
322.19 K, Crystal 1 | 2885 J/K/mol
322.33 K, Crystal 1 | 3118 J/K/mol
322.45 K, Crystal 1 | 3359 J/K/mol
322.56 K, Crystal 1 | 3742 J/K/mol
322.66 K, Crystal 1 | 4116 J/K/mol
322.75 K, Crystal 1 | 4448 J/K/mol
322.83 K, Crystal 1 | 4648 J/K/mol
322.9 K, Crystal 1 | 5022 J/K/mol
322.97 K, Crystal 1 | 5280 J/K/mol
323.03 K, Crystal 1 | 5513 J/K/mol
323.09 K, Crystal 1 | 5621 J/K/mol
323.15 K, Crystal 1 | 6011 J/K/mol
323.2 K, Crystal 1 | 6386 J/K/mol
323.24 K, Crystal 1 | 6585 J/K/mol
323.29 K, Crystal 1 | 6627 J/K/mol
323.33 K, Crystal 1 | 6677 J/K/mol
323.37 K, Liquid | 6568 J/K/mol
323.42 K, Liquid | 6236 J/K/mol
323.46 K, Liquid | 5862 J/K/mol
323.5 K, Liquid | 5604 J/K/mol
323.55 K, Liquid | 5446 J/K/mol
323.59 K, Liquid | 5080 J/K/mol
323.64 K, Liquid | 4673 J/K/mol
323.69 K, Liquid | 4199 J/K/mol
323.73 K, Liquid | 3816 J/K/mol
323.78 K, Liquid | 3517 J/K/mol
323.83 K, Liquid | 2536 J/K/mol
324 K, Liquid | 1014 J/K/mol
324.78 K, Liquid | 242 J/K/mol
325 K, Liquid | 244 J/K/mol
325.93 K, Liquid | 245 J/K/mol
327.07 K, Liquid | 245 J/K/mol
328.2 K, Liquid | 246 J/K/mol
329.34 K, Liquid | 246 J/K/mol
330 K, Liquid | 247 J/K/mol
330.46 K, Liquid | 247 J/K/mol
331.59 K, Liquid | 247 J/K/mol
332.72 K, Liquid | 247 J/K/mol
333.84 K, Liquid | 247 J/K/mol
334.96 K, Liquid | 248 J/K/mol
335 K, Liquid | 249 J/K/mol
336.08 K, Liquid | 250 J/K/mol
337.19 K, Liquid | 251 J/K/mol
338.3 K, Liquid | 253 J/K/mol
339.4 K, Liquid | 254 J/K/mol
340 K, Liquid | 254 J/K/mol
340.5 K, Liquid | 255 J/K/mol
342.69 K, Liquid | 259 J/K/mol
343.77 K, Liquid | 262 J/K/mol
344.84 K, Liquid | 265 J/K/mol
345 K, Liquid | 266 J/K/mol
345.9 K, Liquid | 269 J/K/mol
346.95 K, Liquid | 273 J/K/mol
348.01 K, Liquid | 278 J/K/mol
349.04 K, Liquid | 284 J/K/mol
350 K, Liquid | 288 J/K/mol
351.08 K, Liquid | 294 J/K/mol
352.08 K, Liquid | 300 J/K/mol
353 K, Liquid | 308 J/K/mol
353.07 K, Liquid | 309 J/K/mol
